Laboratory results taken from US20240285670A1, “THERAPEUTIC TREATMENT OF TUMORS BY BLOCKING THE HEME SYNTHESIS-EXPORT AXIS” (Università degli Studi di Torino, priority 2021, published 2024).

Tested on: BTECs
Assay: Activity of mitochondrial ETC complexes I-IV in BTECs
Format: cell-based, human
Settings: FLVCR1a-silenced vs scramble shRNA BTECs
Excerpt: Results were expressed as nmol NAD*/min/mg mitochondrial protein for complex I, nmol reduced cytochrome c/min/mg mitochondrial protein for complexes II-III, nmol oxidized cytochrome c/min/mg mitochondrial protein for complex IV. Data represent mean±SEM, n=3. For statistical analyses, an unpaired Student's t-test was used; *=p<0.05, **=p<0.01, *=p<0.001. […] Results are expressed as nmol/mg mitochondrial proteins. Data represent mean±SEM, n=3. For statistical analyses, an unpaired Student's t-test was used; *=p<0.05. […] Results are expressed as pmol CO2/h/mg protein. Data represent mean±SEM, n=3. For statistical analyses, an unpaired Student's t-test was used; **=p<0.01. […] Results were expressed as nmol NAD*/min/mg mitochondrial protein for complex I, nmol reduced cytochrome c/min/mg mitochondrial protein for complexes II-III, nmol oxidized cytochrome c/min/mg mitochondrial protein for complex IV. […] Results are expressed as nmol/mg mitochondrial proteins. […] Results are expressed as pmol CO2/h/mg protein. […] (H) TCA cycle enzymes activities are reported in boxes and expressed as mU/mg mitochondrial proteins. […] Results were expressed as nmol NAD^+/min/mg mitochondrial protein for complex I, nmol reduced cytochrome c/min/mg mitochondrial protein for complexes II-III, nmol oxidized cytochrome c/min/mg mitochondrial protein for complex IV. […] Results are expressed as nmol/mg mitochondrial proteins. […]

FLVCR1a shRNA: shRNA specifically down-regulating FLVCR1a without targeting FLVCR1b; pLKO.1 lentiviral clone TRCN0000059599, antisense SEQ ID No.: 2 (antisense TTGCTAATGATGCTGTACTGG; sense CCAGTACAGCATCATTAGCAA)
activity of ETC complexes: enhanced activity of ETC complexes
